From article PMC7367283, “A PIP2 substitute mediates voltage sensor-pore coupling in KCNQ activation” (Communications Biology, 2020)
Several values for one entry are separate records, joined by “and”; a condition that tells them apart may be missing. Equal entries are not always repeated.

Legend:
Assay type in all cases: cell-based
[1] = target: KCNQ3 with mutation A315T (KCNQ3*) (Homo sapiens, UniProt O43525, A315T); test: Two-electrode voltage clamp of KCNQ3* in Xenopus oocytes; settings: Q3*, individual oocytes
Description: KCNQ2 and KCNQ3 form a channel complex that carries M currents in neurons. Similar to KCNQ1, these KCNQ subunits require PIP2 for voltage-dependent activation. KCNQ2 alone can express functional channels in Xenopus oocytes, while KCNQ3 alone cannot. However, a single mutation, A315T, allows KCNQ3 to functionally express in Xenopus oocytes. We examined the effects of CP1 on KCNQ2, KCNQ3 with mutation A315T (denoted as KCNQ3*), KCNQ2+KCNQ3, and KCNQ2+KCNQ3* expressed in Xenopus oocytes (Fig. 5a). Similar to the effects on KCNQ1 and IKs channels, CP1 changed the amplitude of currents (Fig. 5b), shifted the G–V relation to more negative voltages (Fig. 5c), and slowed the deactivation kinetics (Fig. 5d) for all of these KCNQ channels. These CP1 effects were relatively small on KCNQ2 as compared with those on other KCNQ channels, and the effects on KCNQ2/KCNQ3* and KCNQ2/KCNQ3 complexes were closer to those on KCNQ2 alone.
Fig. 5 Subtype selectivity of CP1 on KCNQ channels. a Current traces of KCNQ channels as indicated in the absence and the presence of 10 µM CP1. […]
The whole-oocyte ionic currents were recorded with a GeneClamp 500B amplifier (Axon Instruments, CA) or iTEV90 amplifier (HEKA, Germany) and then sampled at 1 kHz and low-pass-filtered at 2 kHz. […] The Kir1.1 current was recorded with a high K^+ bath solution containing (in mM) 96 KCl, 4 NaCl, 1 CaCl2, 2 MgCl2, and 10 HEPES, pH 7.3–7.4. The HCN4 current was recorded in ND66 solution containing (in mM) 66 NaCl, 32 KCl, 1.8 CaCl2, 1 MgCl2, and 5 HEPES, pH 7.6. All the other potassium channels were recorded in ND96 solution. The currents of CaV1.2 channel were recorded in 40 mM Ba^2+ bath solution containing (in mM) 40 Ba(OH)2, 50 TEA-OH, 2 KOH, and 5 HEPES, adjusted to pH 7.4 with methanesulfonic acid. […] The HCN4 currents were recorded by a test pulse between −30 and −140 mV in 10-mV step from a holding potential of −30 mV. […]

[2] = target: NaV1.5 (Homo sapiens, UniProt Q14524); test: Cut-open oocyte recording of NaV1.5; settings: 10 µM CP1
Chain of NaV1.5 (Q14524 whole entry): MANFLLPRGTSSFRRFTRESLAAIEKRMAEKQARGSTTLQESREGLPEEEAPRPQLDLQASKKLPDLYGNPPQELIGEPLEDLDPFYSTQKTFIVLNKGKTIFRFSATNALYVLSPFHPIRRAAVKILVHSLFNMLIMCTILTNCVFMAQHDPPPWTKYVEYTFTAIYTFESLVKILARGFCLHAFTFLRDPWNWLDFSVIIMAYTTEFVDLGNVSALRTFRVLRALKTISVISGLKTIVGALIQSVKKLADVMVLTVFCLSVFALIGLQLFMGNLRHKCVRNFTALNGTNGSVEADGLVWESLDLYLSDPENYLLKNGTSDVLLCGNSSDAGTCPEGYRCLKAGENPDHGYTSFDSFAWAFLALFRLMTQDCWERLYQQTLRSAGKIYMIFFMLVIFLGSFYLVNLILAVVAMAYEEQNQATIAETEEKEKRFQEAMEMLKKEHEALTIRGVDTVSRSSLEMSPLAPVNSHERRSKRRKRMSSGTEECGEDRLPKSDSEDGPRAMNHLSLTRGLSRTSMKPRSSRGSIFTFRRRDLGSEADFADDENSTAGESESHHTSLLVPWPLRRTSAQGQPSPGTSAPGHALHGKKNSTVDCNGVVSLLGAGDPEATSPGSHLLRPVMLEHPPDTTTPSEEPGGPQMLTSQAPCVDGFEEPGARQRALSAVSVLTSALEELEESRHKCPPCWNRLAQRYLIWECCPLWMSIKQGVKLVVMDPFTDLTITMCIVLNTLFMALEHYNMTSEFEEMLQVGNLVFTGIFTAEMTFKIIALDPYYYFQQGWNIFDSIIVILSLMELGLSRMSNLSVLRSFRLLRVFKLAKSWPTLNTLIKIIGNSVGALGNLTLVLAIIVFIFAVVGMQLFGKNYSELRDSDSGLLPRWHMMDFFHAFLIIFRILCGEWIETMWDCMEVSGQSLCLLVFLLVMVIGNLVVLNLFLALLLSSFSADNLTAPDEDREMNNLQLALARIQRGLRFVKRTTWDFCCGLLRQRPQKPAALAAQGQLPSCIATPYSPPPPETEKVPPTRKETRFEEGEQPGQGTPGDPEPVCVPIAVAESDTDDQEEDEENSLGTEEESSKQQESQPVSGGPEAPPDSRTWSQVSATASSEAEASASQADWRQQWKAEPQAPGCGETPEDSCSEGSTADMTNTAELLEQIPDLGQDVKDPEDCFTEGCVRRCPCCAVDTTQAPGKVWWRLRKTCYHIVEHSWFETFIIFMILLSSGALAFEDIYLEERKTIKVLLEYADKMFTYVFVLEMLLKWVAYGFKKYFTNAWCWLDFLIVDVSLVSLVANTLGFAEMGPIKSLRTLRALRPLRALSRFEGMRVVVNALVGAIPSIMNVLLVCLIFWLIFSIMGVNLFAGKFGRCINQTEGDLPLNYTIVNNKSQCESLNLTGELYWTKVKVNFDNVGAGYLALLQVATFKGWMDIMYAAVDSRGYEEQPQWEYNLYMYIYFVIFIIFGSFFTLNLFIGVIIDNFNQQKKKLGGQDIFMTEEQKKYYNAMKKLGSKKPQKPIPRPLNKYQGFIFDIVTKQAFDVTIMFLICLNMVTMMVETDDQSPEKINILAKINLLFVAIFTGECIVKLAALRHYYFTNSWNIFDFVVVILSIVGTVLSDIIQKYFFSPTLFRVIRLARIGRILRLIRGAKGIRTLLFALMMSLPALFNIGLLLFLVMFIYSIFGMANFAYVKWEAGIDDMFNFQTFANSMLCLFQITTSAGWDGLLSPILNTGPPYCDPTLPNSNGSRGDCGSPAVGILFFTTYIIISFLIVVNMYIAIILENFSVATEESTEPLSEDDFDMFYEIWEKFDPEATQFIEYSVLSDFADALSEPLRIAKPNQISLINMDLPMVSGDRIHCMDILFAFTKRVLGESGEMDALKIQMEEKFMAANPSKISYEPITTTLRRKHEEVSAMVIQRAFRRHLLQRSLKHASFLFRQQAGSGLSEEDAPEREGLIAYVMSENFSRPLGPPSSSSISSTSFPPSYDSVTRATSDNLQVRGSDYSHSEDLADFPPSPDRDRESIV
Chain of NaV1.5 (Q07699 19-218 partner): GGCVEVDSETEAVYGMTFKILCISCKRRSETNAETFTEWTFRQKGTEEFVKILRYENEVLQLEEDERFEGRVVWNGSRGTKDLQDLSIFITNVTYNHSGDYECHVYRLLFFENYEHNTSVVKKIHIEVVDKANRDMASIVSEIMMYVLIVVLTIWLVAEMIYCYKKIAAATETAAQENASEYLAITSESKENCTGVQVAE

[3] = target: KCNQ1 (Homo sapiens, UniProt P51787); test: KCNQ1 co-expressed with CiVSP (PIP2 depletion), two-electrode voltage clamp in Xenopus oocytes; settings: ~10 µM CP1 injected into the oocyte; pulses to +60 mV
Description: We co-expressed KCNQ1 with the voltage-dependent lipid phosphatase CiVSP[44] in Xenopus oocytes and recorded KCNQ1 currents using two-electrode voltage clamp with consecutive depolarizing voltage pulses. […] To more directly test CP1 effects, we applied CP1 to the intracellular side of the inside-out membrane patch that expressed IKs channels.

## O=S(=O)([O-])Oc1c(-c2sc3c(ccc4cccc(Cl)c43)c2OS(=O)(=O)[O-])[nH]c2ccc(Br)cc12.[Na+].[Na+] [CP1, DISODIUM 5-BROMO-2-[9-CHLORO-3-(SULFONATOOXY) NAPHTHO [1,2-B] THIEN-2-YL]-1H-INDOL-3-YL SULFATE]
[1]; 10 µM CP1, at −10 mV
  outward current (Icp1/Ictrl): 1.2737 and 1.6954 and 1.3889 and 1.1185 and 2.1991
[1]; 10 µM CP1
  ∆V1/2: 53.8685 mV and 55.0436 mV and 52.8957 mV and 57.617 mV and 27.8181 mV
[1]; 10 µM CP1 treated
  τ deact at -120 mV: 0.795 s and 1.6371 s and 1.4451 s and 1.5742 s and 1.825 s and 1.6646 s
[2]; voltage -140 mV
  G/Gmax Mean (Fig. 6d): 0.0026
[2]; voltage -160 mV
  G/Gmax Mean (Fig. 6d): 0.0055
[3]
  KCNQ1 currents after PIP2 depletion: currents increased with consecutive voltage pulses
